Measurements taken from patent US9409952B2, “Peptide-compound cyclization method” (Chugai Seiyaku Kabushiki Kaisha, priority 2011, dated 2016).
Read-outs that look alike come from different tables or passages of the source. Starred links: 1 amine or outer side, 2 acyl side, 3 side chain; linkers in the order of their positions; H or OH if unused. Positions of bridges follow the written chain, without caps; N, C: chain ends. Non-standard residues stand in square brackets, D forms with d. Residues, ends and D or L forms follow the SMILES beside them. *: point of attachment. NMeF = CN[C@@H](Cc1ccccc1)C(=O)O; NMeGABA = CN(CCCC(=O)[*:2])[*:1]; NMeI = CC[C@H](C)[C@H](NC)C(=O)O; NMeβAla = CN(CCC(=O)[*:2])[*:1]; NMeL = CN[C@@H](CC(C)C)C(=O)O; NMeV = CN[C@H](C(=O)O)C(C)C; NMeA = CN[C@@H](C)C(=O)O; Piperidide = C1CCN(*)CC1; dNMeA = CN[C@H](C)C(=O)O; Sar = CNCC(=O)O

Key:
[1] = PAMPA (parallel artificial membrane permeability assay); format: in vitro ADME; settings: for Papp at 18 hours, 50 µM: PAMPA
Summary of the method: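 Artificial membrane was 10% (w/v) egg lecithin plus 0.5% (w/v) cholesterol in dodecane on a PVDF filter. A 10 mM DMSO stock was added at 0.5% (v/v) to donor buffer (50 mM MOPSO, pH 6.5, 5.0% glycocholic acid). After 18 h at 37 °C, LC/MS or LC/UV gave donor and acceptor levels for Pe.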

[2] = Metabolic stability in human hepatic microsome; format: in vitro ADME; settings: microsomes
[3] = membrane permeation rate (Pe), 50 mM MOPSO buffer pH 6.5 with 5.0% glycocholic acid, 37° C., 18 hours, read-out: iPAMPA Pe
[4] = pH 7.4, human hepatic microsome, NADPH(+), read-out: CL NADPH(+)

Structure (SMILES) | Papp at 18 hours, 50 µM ([1]; pH 6.5) | microsomal CLint at 1 uM ([2]; human, pH 7.4, CL NADPH(+)) | Papp at 18 hours, 50 µM [1, 3] | microsomal CLint at 1 uM [2, 4] | iPAMPA Pe ([1]; membrane permeation rate (Pe), 50 mM MOPSO buffer pH 6.5 with 5.0% glycocholic acid, 37° C., 18 hours)
CC[C@H](C)[C@H]1C(=O)NCC(=O)N[C@@H]([C@@H](C)O)C(=O)N2CCC[C@H]2C(=O)N[C@@H](Cc2ccccc2)C(=O)N(C)[C@@H](CC(C)C)C(=O)N[C@H](C(=O)N2CCCCC2)CC(=O)N[C@H](C(C)C)C(=O)N[C@@H](Cc2ccccc2)C(=O)N(C)[C@@H](CC(C)C)C(=O)N[C@@H](CC(C)C)C(=O)N1C [DP-231] ([dV]F[NMeL]L[NMeI]GTPF[NMeL]D-Piperidide; lactam N-11) | 18 ×10⁻⁶ cm/s | 56 µL/min/mg |  |  | 
CC[C@H](C)[C@H]1C(=O)N[C@@H]([C@@H](C)O)C(=O)N(C)CC(=O)N[C@H](C(=O)N2CCCCC2)CC(=O)N[C@H](C(C)C)C(=O)N[C@@H](CC(C)C)C(=O)N(C)[C@@H](CC(C)C)C(=O)N(C)[C@@H](Cc2ccccc2)C(=O)N[C@@H](C)C(=O)N(C)[C@@H](Cc2ccccc2)C(=O)N(C)[C@@H](CC(C)C)C(=O)N1C [DP-232] ([dV]L[NMeL][NMeF]A[NMeF][NMeL][NMeI]T[Sar]D-Piperidide; lactam N-11) |  |  | 18 ×10⁻⁶ cm/s | 77 µL/min/mg | 
CC[C@H](C)[C@H]1C(=O)N(C)CC(=O)N(C)[C@@H](C(C)C)C(=O)N[C@@H]([C@@H](C)O)C(=O)N[C@H](C(=O)N2CCCCC2)CC(=O)N[C@H](C(C)C)C(=O)N(C)[C@@H](C)C(=O)N(C)[C@@H](CC(C)C)C(=O)N[C@@H](CC(C)C)C(=O)N(C)[C@@H](Cc2ccccc2)C(=O)N[C@@H](Cc2ccccc2)C(=O)N1C [DP-233] ([dV][NMeA][NMeL]L[NMeF]F[NMeI][Sar][NMeV]TD-Piperidide; lactam N-11) |  |  | 32 ×10⁻⁶ cm/s | 39 µL/min/mg | 
CC[C@H](C)[C@H]1C(=O)N(C)[C@@H](CC(C)C)C(=O)N[C@@H]([C@@H](C)O)C(=O)N[C@H](C(=O)N2CCCCC2)CC(=O)N[C@H](C(C)C)C(=O)N(C)[C@@H](C)C(=O)N(C)[C@@H](CC(C)C)C(=O)N(C)[C@@H](Cc2ccccc2)C(=O)N[C@@H](C)C(=O)N(C)[C@@H](CC(C)C)C(=O)N(C)[C@@H](Cc2ccccc2)C(=O)N1C [DP-234] ([dV][NMeA][NMeL][NMeF]A[NMeL][NMeF][NMeI][NMeL]TD-Piperidide; lactam N-11) |  |  | 2 ×10⁻⁶ cm/s | 91 µL/min/mg | 
CC[C@H](C)[C@H]1C(=O)N(C)[C@@H](CC(C)C)C(=O)N[C@@H](C)C(=O)N(C)[C@@H](CC(C)C)C(=O)N(C)[C@@H](Cc2ccccc2)C(=O)N[C@@H]([C@@H](C)O)C(=O)N(C)[C@@H](Cc2ccccc2)C(=O)N(C)[C@@H](CC(C)C)C(=O)N(C)[C@@H](C)C(=O)N[C@H](C(=O)N2CCCCC2)CC(=O)N[C@H](C(C)C)C(=O)N1C [DP-235] ([dV][NMeI][NMeL]A[NMeL][NMeF]T[NMeF][NMeL][NMeA]D-Piperidide; lactam N-11) |  |  | 9 ×10⁻⁶ cm/s | 58 µL/min/mg | 
CC[C@H](C)[C@H]1C(=O)NCC(=O)N(C)[C@@H](CC(C)C)C(=O)N[C@@H]([C@@H](C)O)C(=O)N2CCC[C@H]2C(=O)N[C@@H](Cc2ccccc2)C(=O)N[C@H](C(=O)N2CCCCC2)CC(=O)N(C)[C@@H](C)C(=O)N[C@@H](Cc2ccccc2)C(=O)N(C)[C@@H](CC(C)C)C(=O)N[C@@H](CC(C)C)C(=O)N1C [DP-236] ([NMeA]F[NMeL]L[NMeI]G[NMeL]TPFD-Piperidide; lactam N-11) |  |  |  | 79 µL/min/mg | 7.0E−05
CC(C)C[C@@H]1NC(=O)[C@H](CC(C)C)N(C)C(=O)[C@H](C)NC(=O)[C@H](C(C)C)N(C)C(=O)[C@H](C)N(C)C(=O)CN(C)C(=O)[C@H]([C@@H](C)O)NC(=O)[C@H](Cc2ccccc2)NC(=O)[C@H](CC(C)C)N(C)C(=O)[C@H](C)N(C)C(=O)C[C@@H](C(=O)N2CCCCC2)NC1=O [DP-237] ([NMeA][NMeL]FT[Sar][NMeA][NMeV]A[NMeL]LD-Piperidide; lactam N-11) |  |  | 12 ×10⁻⁶ cm/s | 37 µL/min/mg | 
CC[C@H](C)[C@@H]1NC(=O)[C@H](Cc2ccccc2)N(C)C(=O)[C@H]([C@@H](C)O)NC(=O)[C@H](C(C)C)N(C)C(=O)[C@H](CC(C)C)NC(=O)[C@H](CC(C)C)N(C)C(=O)CCN(C)C(=O)C[C@@H](C(=O)N2CCCCC2)NC(=O)[C@H](C)NC(=O)[C@H](C)N(C)C(=O)[C@H](Cc2ccccc2)NC1=O [DP-238] ([NMeβAla][NMeL]L[NMeV]T[NMeF]IF[NMeA]AD-Piperidide; lactam N-11) |  |  | 19 ×10⁻⁶ cm/s | 129 µL/min/mg | 
CC[C@H](C)[C@H]1C(=O)N[C@@H](Cc2ccccc2)C(=O)N[C@@H]([C@@H](C)O)C(=O)N2CCC[C@H]2C(=O)N[C@@H](Cc2ccccc2)C(=O)N[C@H](C(=O)N2CCCCC2)CC(=O)N(C)CCC(=O)N(C)[C@@H](CC(C)C)C(=O)N(C)[C@@H](CC(C)C)C(=O)N[C@@H](CC(C)C)C(=O)NCC(=O)N1C [DP-239] ([NMeβAla][NMeL][NMeL]LG[NMeI]FTPFD-Piperidide; lactam N-11) |  |  | 25 ×10⁻⁶ cm/s | 109 µL/min/mg | 
CC[C@H](C)[C@H]1C(=O)N(C)[C@@H](CC(C)C)C(=O)N[C@H](C(=O)N2CCCCC2)CC(=O)N(C)CCC(=O)N(C)[C@@H](CC(C)C)C(=O)N[C@@H]([C@@H](C)O)C(=O)N(C)[C@@H](C)C(=O)N(C)[C@@H](Cc2ccccc2)C(=O)N[C@@H](C)C(=O)N(C)[C@@H](Cc2ccccc2)C(=O)N[C@@H](CC(C)C)C(=O)N1C [DP-240] ([NMeβAla][NMeL]T[NMeA][NMeF]A[NMeF]L[NMeI][NMeL]D-Piperidide; lactam N-11) |  |  | 38 ×10⁻⁶ cm/s | 125 µL/min/mg | 
CC[C@H](C)[C@H]1C(=O)N(C)[C@@H](Cc2ccccc2)C(=O)N[C@@H]([C@@H](C)O)C(=O)N(C)[C@@H](C)C(=O)N(C)[C@@H](C(C)C)C(=O)N(C)[C@@H](CC(C)C)C(=O)N[C@@H](C)C(=O)N[C@H](C(=O)N2CCCCC2)CC(=O)N(C)CCC(=O)N[C@@H](Cc2ccccc2)C(=O)N(C)[C@@H](CC(C)C)C(=O)N1C [DP-241] ([NMeβAla]F[NMeL][NMeI][NMeF]T[NMeA][NMeV][NMeL]AD-Piperidide; lactam N-11) |  |  | 26 ×10⁻⁶ cm/s | 30 µL/min/mg | 
CC[C@H](C)[C@@H]1NC(=O)[C@H](C)N(C)C(=O)[C@H]([C@@H](C)O)NC(=O)[C@H](C(C)C)N(C)C(=O)[C@H](CC(C)C)NC(=O)[C@H](CC(C)C)N(C)C(=O)[C@@H](C)N(C)C(=O)C[C@@H](C(=O)N2CCCCC2)NC(=O)[C@H](Cc2ccccc2)NC(=O)[C@H](C)NC(=O)[C@H](Cc2ccccc2)N(C)C1=O [DP-242] ([dNMeA][NMeL]L[NMeV]T[NMeA]I[NMeF]AFD-Piperidide; lactam N-11) |  |  | 29 ×10⁻⁶ cm/s | 43 µL/min/mg | 
CC(C)C[C@@H]1NC(=O)[C@H](CC(C)C)N(C)C(=O)[C@H](C)NC(=O)[C@H](C(C)C)N(C)C(=O)[C@H](C)N(C)C(=O)CN(C)C(=O)[C@H]([C@@H](C)O)NC(=O)[C@H](Cc2ccccc2)NC(=O)[C@H](CC(C)C)N(C)C(=O)[C@@H](C)N(C)C(=O)C[C@@H](C(=O)N2CCCCC2)NC1=O [DP-243] ([dNMeA][NMeL]FT[Sar][NMeA][NMeV]A[NMeL]LD-Piperidide; lactam N-11) |  |  | 8.4 ×10⁻⁶ cm/s | 32 µL/min/mg | 
CC[C@H](C)[C@H]1C(=O)N(C)[C@@H](Cc2ccccc2)C(=O)N(C)[C@@H](CC(C)C)C(=O)N[C@H](C(=O)N2CCCCC2)CC(=O)N(C)[C@H](C)C(=O)N(C)[C@@H](CC(C)C)C(=O)N[C@@H]([C@@H](C)O)C(=O)N(C)[C@@H](C)C(=O)N[C@@H](C)C(=O)N(C)[C@@H](Cc2ccccc2)C(=O)N[C@@H](CC(C)C)C(=O)N1C [DP-244] ([dNMeA][NMeL]T[NMeA]A[NMeF]L[NMeI][NMeF][NMeL]D-Piperidide; lactam N-11) |  |  | 31 ×10⁻⁶ cm/s | 16 µL/min/mg | 
CC[C@H](C)[C@@H]1NC(=O)[C@H](C)N(C)C(=O)[C@H]([C@@H](C)O)NC(=O)[C@H](C(C)C)N(C)C(=O)[C@H](CC(C)C)NC(=O)[C@H](CC(C)C)N(C)C(=O)CN(C)C(=O)C[C@@H](C(=O)N2CCCCC2)NC(=O)[C@H](C)NC(=O)[C@H](Cc2ccccc2)NC(=O)[C@H](Cc2ccccc2)N(C)C1=O [DP-245] ([Sar][NMeL]L[NMeV]T[NMeA]I[NMeF]FAD-Piperidide; lactam N-11) |  |  | 31 ×10⁻⁶ cm/s | 71 µL/min/mg | 
CC[C@H](C)[C@H]1C(=O)N(C)[C@@H](CC(C)C)C(=O)N[C@H](C(=O)N2CCCCC2)CC(=O)N(C)CC(=O)N[C@@H](CC(C)C)C(=O)N[C@@H]([C@@H](C)O)C(=O)N(C)CC(=O)N(C)[C@@H](Cc2ccccc2)C(=O)N[C@@H](C)C(=O)N(C)[C@@H](Cc2ccccc2)C(=O)N(C)[C@@H](CC(C)C)C(=O)N1C [DP-246] ([Sar]LT[Sar][NMeF]A[NMeF][NMeL][NMeI][NMeL]D-Piperidide; lactam N-11) |  |  | 41 ×10⁻⁶ cm/s | 42 µL/min/mg | 
CC[C@H](C)[C@H]1C(=O)N[C@@H](CC(C)C)C(=O)N(C)[C@@H](CC(C)C)C(=O)N[C@H](C(=O)N2CCCCC2)CC(=O)N(C)CC(=O)N(C)[C@@H](CC(C)C)C(=O)N[C@@H]([C@@H](C)O)C(=O)N(C)[C@@H](C)C(=O)N[C@@H](C)C(=O)N(C)[C@@H](Cc2ccccc2)C(=O)N(C)[C@@H](Cc2ccccc2)C(=O)N1C [DP-247] ([Sar][NMeL]T[NMeA]A[NMeF][NMeF][NMeI]L[NMeL]D-Piperidide; lactam N-11) |  |  | 28 ×10⁻⁶ cm/s | 48 µL/min/mg | 
CC[C@H](C)[C@H]1C(=O)N(C)[C@@H](Cc2ccccc2)C(=O)N[C@@H](CC(C)C)C(=O)N[C@H](C(=O)N2CCCCC2)CC(=O)N(C)CCCC(=O)N(C)[C@@H](CC(C)C)C(=O)N[C@@H]([C@@H](C)O)C(=O)N(C)[C@@H](Cc2ccccc2)C(=O)N(C)[C@@H](CC(C)C)C(=O)N(C)[C@@H](CC(C)C)C(=O)N[C@@H](C)C(=O)N1C [DP-248] ([NMeGABA][NMeL]T[NMeF][NMeL][NMeL]A[NMeI][NMeF]LD-Piperidide; lactam N-11) |  |  | 2.6 ×10⁻⁶ cm/s | 36 µL/min/mg | 
